Among the data in US11166958B2, “4-pyrazin-2-ylmethyl-morpholine derivatives and the use thereof as medicament” (Boehringer Ingelheim International GmbH, priority 2018, dated 2021) are half-life and IC50 values, retold here.

Where only a bound is given, the exact number is not on record here.

Data set [1] can be described thus: Metabolic stability in pooled human liver microsomes. In kind it is in vitro ADME. The following applies: pH 7.6, 1 μM compound, 1 mg/mL microsomal protein, 37° C., NADPH, read-out: Half-life − t½ human liver microsomes. The text has this:
Stability in human liver microsomes refers to the susceptibility of compounds to biotransformation in the context of selecting and/or designing drugs with favorable pharmacokinetic properties. The primary site of metabolism for many drugs is the liver. Human liver microsomes contain the cytochrome P450s (CYPs), and thus represent a model system for studying drug metabolism in vitro Enhanced stability in human liver microsomes is associated with several advantages, including increased bioavailability and adequate half-life, which can enable lower and less frequent dosing of patients.
The metabolic degradation of the test compound was assayed at 37° C. with pooled human liver microsomes. The final incubation volume of 60 μl per time point contains TRIS buffer pH 7.6 at room temperature (0.1 M), magnesium chloride (5 mM aqueous solution), microsomal protein (1 mg/mL for human) and the test compound at a final concentration of 1 μM. Following a short preincubation period at 37° C., the reactions were initiated by addition of betanicotinamide adenine dinucleotide phosphate, reduced form (NADPH, 1 mM), and terminated by transferring an aliquot into acetonitril after different time points. After centrifugation (10000 g, 5 min), an aliquot of the supernatant was assayed by HPLC-MS/MS as described above for the MDCK assay P-gp for the amount of parent compound. The half-life was determined by the slope of the semi-logarithmic plot of the concentration-time profile.
A general note: Microsomes from liver hold many membrane-bound enzymes, among them those of drug oxidation.

The target of the next data set is NMDA NR1/NR2B receptor (Homo sapiens (Human), UniProt Q13224). As to the kind of experiment: In vitro NMDA NR1/NR2B cell assay (FLIPR, intracellular calcium induced by glycine/glutamate). The class given is cell-based. The conditions noted are these: HEK293 NR1/NR2B, 20 μM glycine / 1 μM glutamate, read-out: In vitro NR2B affinity, IC50. How it is done: A human HEK293 cell line with tetracyclin-inducible expression of NMDA NR1/NR2B receptor was used as a test system for compound efficacy and potency. The cell line was purchased from ChanTest, Catalog #CT6121. Compound activity was determined by measuring the effect of compounds on intracellular calcium concentration induced by glycine/glutamate agonism in a FLIPRtetra system (Molecular Devices).
The cells were obtained as frozen cells in cryo-vials and stored until use at −150° C. Cells were grown in culture medium (DMEM/F12, 10% FBS, 5 μg/mL Blasticidin, 150 μg/mL Zeozin, 500 μg/mL Geneticin). […] For sub-culturing the cells were detached from flasks by Versene. For the assay, cells were detached, washed twice with induction medium (DMEM/F12 without glutamine, 10% FBS, 2 μg/mL Tetracycline, 2 mM Ketamine) and seeded to 384 well pure coat amine plates (Becton Dickinson, 50000 cells per well in 50 μl) 48 h prior to assay in induction medium.
The test compounds were dissolved in 100% DMSO at a concentration of 10 mM and in a first step diluted in DMSO to a concentration of 5 mM, followed by serial dilution steps in 100% DMSO. Dilution factor and number of dilution steps may vary according to needs. Typically 8 different concentrations by 1:5 dilutions were prepared in duplicate, further intermediate dilutions (1:37.5) of the substances were carried out with aqueous assay buffer (137 mM NaCl, 4 mM KCl, 1.8 mM CaCl2), 10 mM HEPES, 10 mM Glucose, pH 7.4) resulting in a compound concentration 3 times above the final test concentration and DMSO at 2.7% resulting in 0.9% final DMSO concentration in the assay.
At the assay day cells were washed 3× with assay buffer (as described above), 10 μL buffer remained in the wells after washing. 10 μL Ca kit loading buffer (AAT Bioquest; prepared from the kit containing the following components: Component A: Fluo-8 NW dissolved in 200 μL DMSO and 20 μl of this solution are mixed with 10 ml buffer prepared out of component B and C, Component B: 10× Pluronic® F127 Plus diluted 1:10 in component C, Component C: HHBS (Hanks with 20 mM Hepes) was added to the cells and the plates were incubated with lid for 60 minutes at room temperature. 20 μl assay buffer containing 60 μM glycine (20 μM final) and 3 μM glutamate (1 μM final) was added to column 1-23, column 24 got assay buffer without glycine/glutamate to serve as negative unstimulated control. Fluorescence (indicating the calcium influx as a result of the NR1/NR2B ion channel activation) was read on the FLIPRtetra device for 60 seconds to monitor the glutamate induced effects. After 2 minutes 20 μL of compound dilution prepared as described above or controls (row 1-22) in assay buffer were carefully added to the wells. […] The average of 2 measurements at 5 minutes and 5 min 10 seconds after compound addition is calculated and further used for IC50 calculations. Each assay microtiter compound dilution plate contained wells (in column 23 or 24) with DMSO controls instead of compound as controls for glycine/glutamate induced fluorescence (high controls) and wells with 1 μM of a reference NR2B NAM as low controls (Compound 22; reference: Layton, Mark E et al, ACS Chemical Neuroscience 2011, 2(7), 352-362).
The output file of the reader contains the well number and measured average fluorescence units. For data evaluation and calculation, the measurement of the low control was set as 0% control and the measurement of the high control was set as 100% control. The IC50 values were calculated using the standard 4 parameter logistic regression formula. Calculation: [y=(a−d)/(1+(x/c)^b)+d], a=low value, d=high value; x=conc M; c=IC50 M; b=slope.
On the technique in general: A change in cytosolic calcium serves as a functional read-out for many receptors and channels.

In general, half-life refers to the time needed for the level to fall by half in the phase considered. Broadly, the IC50 is the concentration needed to halve the response being measured.

Sequence of NMDA NR1/NR2B receptor (Q13224 27-1484, other chains not shown): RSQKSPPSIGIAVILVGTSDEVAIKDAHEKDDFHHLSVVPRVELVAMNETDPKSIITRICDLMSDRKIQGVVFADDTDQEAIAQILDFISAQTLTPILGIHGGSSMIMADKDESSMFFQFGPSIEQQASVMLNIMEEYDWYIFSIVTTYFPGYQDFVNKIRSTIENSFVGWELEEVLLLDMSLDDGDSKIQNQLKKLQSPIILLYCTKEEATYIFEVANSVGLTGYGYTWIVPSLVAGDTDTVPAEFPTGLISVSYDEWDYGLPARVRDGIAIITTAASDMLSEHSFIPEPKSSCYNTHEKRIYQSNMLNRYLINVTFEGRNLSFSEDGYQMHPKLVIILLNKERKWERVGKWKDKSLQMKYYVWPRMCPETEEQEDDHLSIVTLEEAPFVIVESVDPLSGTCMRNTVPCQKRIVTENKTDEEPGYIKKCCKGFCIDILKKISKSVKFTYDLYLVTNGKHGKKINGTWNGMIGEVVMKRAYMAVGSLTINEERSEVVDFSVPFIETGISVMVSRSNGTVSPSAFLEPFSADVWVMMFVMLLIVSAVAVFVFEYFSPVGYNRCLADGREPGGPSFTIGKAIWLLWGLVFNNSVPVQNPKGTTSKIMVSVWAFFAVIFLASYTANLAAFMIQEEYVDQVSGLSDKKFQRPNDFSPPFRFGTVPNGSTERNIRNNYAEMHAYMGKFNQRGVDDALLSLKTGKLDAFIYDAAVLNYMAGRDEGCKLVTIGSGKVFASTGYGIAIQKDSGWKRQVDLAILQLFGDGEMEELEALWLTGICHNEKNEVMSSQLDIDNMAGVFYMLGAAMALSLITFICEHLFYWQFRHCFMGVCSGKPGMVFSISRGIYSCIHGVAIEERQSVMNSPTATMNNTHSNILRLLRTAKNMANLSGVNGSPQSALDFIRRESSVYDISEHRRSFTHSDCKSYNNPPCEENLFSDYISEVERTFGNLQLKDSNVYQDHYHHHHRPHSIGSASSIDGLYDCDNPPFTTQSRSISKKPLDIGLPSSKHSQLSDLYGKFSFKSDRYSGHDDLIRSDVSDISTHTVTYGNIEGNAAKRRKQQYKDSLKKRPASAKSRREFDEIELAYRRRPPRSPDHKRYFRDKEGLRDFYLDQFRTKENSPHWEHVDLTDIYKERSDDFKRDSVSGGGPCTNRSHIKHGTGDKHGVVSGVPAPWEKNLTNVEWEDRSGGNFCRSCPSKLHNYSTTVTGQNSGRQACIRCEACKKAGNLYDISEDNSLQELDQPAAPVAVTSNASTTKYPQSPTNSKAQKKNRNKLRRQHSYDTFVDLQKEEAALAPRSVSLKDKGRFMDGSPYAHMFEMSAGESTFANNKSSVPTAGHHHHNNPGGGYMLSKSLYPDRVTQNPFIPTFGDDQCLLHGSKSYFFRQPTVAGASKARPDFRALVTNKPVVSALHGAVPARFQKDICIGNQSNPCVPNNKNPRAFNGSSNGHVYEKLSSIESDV

For `CNC(=O)[C@@H]1CN(Cc2cnc(Oc3ccc(F)cc3)cn2)CCO1` [Example 1], in data set [1], the half-life at 1 µM was > 2.17 h. In addition, the half-inhibitory concentration (IC50) on NMDA NR1/NR2B receptor turned out to be 968 nM.
`CNC(=O)[C@@H]1CN(Cc2cnc(Oc3ccc(C)cc3F)cn2)CCO1` [Example 2]: in data set [1], the half-life at 1 µM was > 2.17 h. In addition, on NMDA NR1/NR2B receptor, the concentration for half-maximal inhibition (IC50) came to 123 nM.
With `CNC(=O)[C@@H]1CN(Cc2cnc(Oc3ccc(C)cc3)cn2)CCO1` [Example 3], in data set [1], the half-life at 1 µM was > 2.17 h. For the same compound, the 50% inhibitory concentration (IC50) at NMDA NR1/NR2B receptor amounted to 690 nM.
Consider `CNC(=O)[C@@H]1CN(Cc2cnc(Oc3ccc(C)cc3C)cn2)CCO1` [Example 4], for which the half-life at 1 µM in data set [1] was > 2.17 h. At NMDA NR1/NR2B receptor, the IC50 is 1200 nM.
`CNC(=O)[C@@H]1CN(Cc2cnc(Oc3ccc(Cl)cc3F)cn2)CCO1` [Example 5]: the half-life at 1 µM in data set [1] was > 2.17 h. At NMDA NR1/NR2B receptor, the concentration for half-maximal inhibition (IC50) worked out at 110 nM.
The matching figures for `CNC(=O)[C@@H]1CN(Cc2cnc(Oc3ccc(F)cc3F)cn2)CCO1` [Example 6]: > 2.17 h and 87 nM.
As to `CNC(=O)[C@@H]1CN(Cc2cnc(Oc3ccc(Cl)cc3)cn2)CCO1` [Example 7], the half-life at 1 µM in data set [1] was > 2.17 h. On NMDA NR1/NR2B receptor, the IC50 is 1000 nM.
For `CNC(=O)[C@@H]1CN(Cc2cnc(Oc3ccc(F)cc3C)cn2)CCO1` [Example 8], the half-life at 1 µM in data set [1] is > 2.17 h. Moreover, the 50% inhibitory concentration (IC50) at NMDA NR1/NR2B receptor was 856 nM.
Consider `CNC(=O)[C@@H]1CN(Cc2cnc(Oc3ccccc3F)cn2)CCO1` [Example 9], for which the half-life at 1 µM in data set [1] was > 2.17 h. The IC50 on NMDA NR1/NR2B receptor is 210 nM.
The matching figures for `CNC(=O)[C@@H]1CN(Cc2cnc(Oc3ccccc3Cl)cn2)CCO1` [Example 18]: > 2.17 h and 222 nM.
The matching figures for `CCNC(=O)[C@@H]1CN(Cc2cnc(Oc3ccc(F)cc3F)cn2)CCO1` [Example 30]: > 2.17 h and 595 nM.
With `CCNC(=O)[C@@H]1CN(Cc2cnc(Oc3ccc(C)cc3F)cn2)CCO1` [Example 31], the half-life at 1 µM in data set [1] is > 2.17 h. Further, the IC50 on NMDA NR1/NR2B receptor worked out at 524 nM.
For `CCNC(=O)[C@@H]1CN(Cc2cnc(Oc3ccccc3Cl)cn2)CCO1` [Example 33], in that order: > 2.17 h and 807 nM.
